Measurements: patent US20130310256A1, “HERBICIDAL COMPOSITIONS COMPRISING 4-AMINO-3-CHLORO-5-FLUORO-6-(4-CHLORO-2-FLUORO-3-METHOXYPHENYL) PYRIDINE-2-CARBOXYLIC ACID OR A DERIVATIVE THEREOF AND VLCFA AND LIPID SYNTHESIS INHIBITING HERBICIDES” (DOW AGROSCIENCES LLC, priority 2008, published 2013)

Legend:
[1] = tested on: ECHCO; test: Example I: postemergence foliar-applied weed control, greenhouse; format: in vivo, Echinochloa colona (L.) Link (junglerice); conditions: for Visual Weed Control Obs: 20 DAA
From the text: (§1) Seeds or nutlets of the desired test plant species were planted in a soil matrix prepared by mixing a loam or sandy loam soil (e.g., 28.6 percent silt, 18.8 percent clay, and 52.6 percent sand, with a pH of about 5.8 and an organic matter content of about 1.8 percent) and calcareous grit in an 80 to 20 ratio. The soil matrix was contained in plastic pots with a volume of 1 quart and a surface area of 83.6 square centimeters (cm^2). When required to ensure good germination and healthy plants, a fungicide treatment and/or other chemical or physical treatment was applied. The plants were grown for 8-22 days in a greenhouse with an approximate 14 hr photoperiod which was maintained at about 29° C. during the day and 26° C. during the night. Nutrients (Peters Excel® 15-5-15 5-Ca 2-Mg and iron chelate) were applied in the irrigation solution as needed and water was added on a regular basis. Supplemental lighting was provided with overhead metal halide 1000-Watt lamps as necessary. The plants were employed for testing when they reached the first through fourth true leaf stage.
(§2) Treatments consisted of the acid or esters of 4-amino-3-chloro-5-fluoro-6-(4-chloro-2-fluoro-3-methoxy-phenyl)pyridine-2-carboxylic acid (Compound A), each formulated as an SC (suspension concentrate), and various herbicidal components alone and in combination. Forms of compound A were applied on an acid equivalent basis.
(§3) Other herbicidal components were applied on an active ingredient basis and included very long chain fatty acid (VLCFA) synthesis-inhibiting and fatty acid/lipid synthesis-inhibiting herbicides acetochlor (technical grade material), acetochlor+dichlormid formulated as Topnotch®, pretilachlor (technical grade material), butachlor formulated as Butachlor EC, fentrazamide formulated as Fentrazamide EC, thiobencarb formulated as Bolero® 8EC, cafenstrole formulated as Himeadow® WP or Lapost® Flowable, benfuresate formulated as Full Shot®, dimethenamid-P formulated as Outlook®, indanofan (technical grade material), flufenacet formulated as Define® DF, mefenacet (technical grade material), S-metolachlor formulated as Dual® II Magnum, pethoxamid formulated as Successor® 600, and pyroxasulfone (technical grade material).
(§4) Treatment requirements were calculated based upon the rates being tested, the concentration of active ingredient or acid equivalent in the formulation, and a 12 mL application volume at a rate of 187 L/ha.
(§5) For treatments comprised of formulated compounds, measured amounts of compounds were placed individually in 25 mL glass vials and diluted in a volume of 1.25% (v/v) Agri-Dex® crop oil concentrated to obtain 12× stock solutions. […] Application solutions were prepared by adding an appropriate amount of each stock solution (e.g., 1 mL) and diluted to the appropriate final concentrations with the addition of 10 mL of an aqueous mixture of 1.25% (v/v) crop oil concentrate so that the final spray solutions contained 1.25+/−0.05% (v/v) crop oil concentrate.
(§6) For treatments comprised of technical compounds, weighed amounts can be placed individually in 25 mL glass vials and dissolved in a volume of 97:3 v/v acetone/DMSO to obtain 12× stock solutions. […] Application solutions can be prepared by adding an appropriate amount of each stock solution (e.g., 1 mL) and diluted to the appropriate final concentrations with the addition of 10 mL of an aqueous mixture of 1.5% (v/v) crop oil concentrate so that the final spray solutions contain 1.25% (v/v) crop oil concentrate. When technical materials are used, the concentrated stock solutions can be added to the spray solutions so that the final acetone and DMSO concentrations of the application solutions are […], respectively. […]

[2] = tested on: XANST; test: Example IV: pre-emergence soil-applied weed control, greenhouse; format: in vivo, Xanthium strumarium L. (common cocklebur); conditions: 29 DAA
From the text: Seeds or nutlets of the desired test plant species were planted in a soil matrix prepared by mixing a loam soil (32 percent silt, 23 percent clay, and 45 percent sand, with a pH of about 6.5 and an organic matter content of about 1.9 percent) and calcareous grit in an 80 to 20 ratio. The soil matrix was contained in plastic pots with a volume of 1 quart and a surface area of 83.6 square centimeters (cm^2).
Treatments consisted of the benzyl ester of 4-amino-3-chloro-5-fluoro-6-(4-chloro-2-fluoro-3-methoxy-phenyl)pyridine-2-carboxylic acid (compound A) formulated as an SC (suspension concentrate) and various herbicidal components alone and in combination. Forms of compound A were applied on an acid equivalent basis.
Other herbicidal components were applied on an active ingredient basis and included very long chain fatty acid (VLCFA) synthesis-inhibiting and fatty acid/lipid synthesis-inhibiting herbicides alachlor (technical grade material), dimethenamid-P formulated as Outlook®, and S-metolachlor formulated as Dual® II Magnum.
as §4
For treatments comprised of formulated compounds, measured amounts of compounds were placed individually in 25 mL glass vials and diluted in a volume of 1.25% (v/v) Agri-Dex® crop oil concentrate (COC) to obtain 12× stock solutions. […] Application solutions were prepared by adding an appropriate amount of each stock solution (e.g., 1 mL) and diluted to the appropriate final concentrations with the addition of 10 mL of an aqueous mixture of 1.25% (v/v) COC so that the final spray solutions contained 1.25% (v/v) COC.
For treatments comprised of technical compounds, weighed amounts can be placed individually in 25 mL glass vials and dissolved in a volume of 97:3 (v/v) acetone/DMSO to obtain 12× stock solutions. […] Application solutions can be prepared by adding an appropriate amount of each stock solution (e.g., 1 mL) and diluted to the appropriate final concentrations with the addition of 10 mL of an aqueous mixture of 1.5% (v/v) COC so that the final spray solutions contain 1.25% (v/v) COC. […]
For treatments comprised of formulated and technical compounds, weighed amounts of the technical materials were placed individually in 25 mL glass vials and dissolved in a volume of 97:3 (v/v) acetone/DMSO to obtain 12× stock solutions, and measured amounts of the formulated compounds were placed individually in 25 mL glass vials and diluted in a volume of 1.5% (v/v) COC or water to obtain 12× stock solutions. […]

[3] = tested on: CYPES; test: Example I: postemergence foliar-applied weed control, greenhouse; format: in vivo, Cyperus esculentus L. (yellow nutsedge); conditions: 275 gai/ha
[4] = tested on: DIGSA; test: as above; format: in vivo, Digitaria sanguinalis (L.) Scop. (large crabgrass); conditions: 20 DAA; 560 gai/ha
From the text: as §1, §2, §3, §4, §5, §6

[5] = tested on: CYPIR; test: as above; format: in vivo, Cyperus iria L. (rice flatsedge); conditions: 20 DAA
From the text: as §1, §2, §3, §4, §5, §6

[6] = tested on: ISCRU; test: as above; format: in vivo, Ischaemum rugosum Salisb. (saramollagrass); conditions: 21 DAA
From the text: as §1, §2, §3, §4
For treatments comprised of formulated compounds, measured amounts of compounds were placed individually in 25 mL glass vials and diluted in a volume of 1.25% (v/v) Agri-Dex® crop oil concentrated to obtain 12× stock solutions. […]

[7] = tested on: ECHOR; test: Example II: in-water applied weed control, transplanted paddy rice, greenhouse; format: in vivo, Echinochloa oryzoides (Ard.) Fritsch (early watergrass)
Procedure: (§7) Weed seeds or nutlets of the desired test plant species were planted in puddled soil (mud) prepared by mixing a shredded, non-sterilized mineral soil (50.5 percent silt, 25.5 percent clay, and 24 percent sand, with a pH of about 7.6 and an organic matter content of about 2.9 percent) and water at a 1:1 volumetric ratio. The prepared mud was dispensed in 365 mL aliquots into 16-ounce (oz.) non-perforated plastic pots with a surface area of 86.59 square centimeters (cm^2) leaving a headspace of 3 centimeters (cm) in each pot. Mud was allowed to dry overnight prior to planting or transplanting. Rice seeds were planted in Sun Gro MetroMix® 306 planting mixture, which typically has a pH of 6.0 to 6.8 and an organic matter content of about 30 percent, in plastic plug trays. Seedlings at the second or third leaf stage of growth were transplanted into 840 mL of mud contained in 32-oz. non-perforated plastic pots with a surface area of 86.59 cm^2 4 days prior to herbicide application. The paddy was created by filling the headspace of the pots with 2.5 to 3 cm of water. When required to ensure good germination and healthy plants, a fungicide treatment and/or other chemical or physical treatment was applied. The plants were grown for 4-22 days in a greenhouse with an approximate 14 hr photoperiod which was maintained at about 29′C during the day and 26° C. during the night. Nutrients were added as Osmocote® (19:6:12, N:P:K+ minor nutrients) at 2 g per 16-oz. pot and 4 g per 32-oz. pot. Water was added on a regular basis to maintain the paddy flood, and supplemental lighting was provided with overhead metal halide 1000-Watt lamps as necessary. The plants were employed for testing when they reached the first through fourth true leaf stage.
(§8) Treatments consisted of the acid or esters of 4-amino-3-chloro-5-fluoro-6-(4-chloro-2-fluoro-3-methoxy-phenyl)pyridine-2-carboxylic acid (compound A) each formulated as an SC (suspension concentrate) and various herbicidal components alone and in combination. Forms of compound A were applied on an acid equivalent basis.
(§9) The herbicidal components were applied on an active ingredient basis and included very long chain fatty acid (VLCFA) synthesis-inhibiting and fatty acid/lipid synthesis-inhibiting herbicides acetochlor (technical grade material), acetochlor+dichlormid formulateded as Topnotch®, pretilachlor (technical grade material), butachlor formulated as Butachlor EC, fentrazamide formulated as Fentrazamide EC, thiobencarb formulated as Bolero® 8EC, cafenstrole formulated as Himeadow® WP or Lapost® Flowable, benfuresate formulated as Full Shot®, anilofos (technical grade material), mefenacet (technical grade material), molinate (technical grade material), and thenylchlor (technical grade material).
(§10) Treatment requirements for each compound or herbicidal component were calculated based upon the rates being tested, the concentration of active ingredient or acid equivalent in the formulation, an application volume of 2 mL per component per pot, and an application area of 86.59 cm^2 per pot.
(§11) For formulated compounds, a measured amount was placed in an individual 100 or 200 mL glass vial and was dissolved in a volume of 1.25% (v/v) Agri-Dex® crop oil concentrate to obtain application solutions.
(§12) For technical grade compounds, a weighed amount was placed in an individual 100 to 200 mL glass vial and was dissolved in a volume of acetone to obtain concentrated stock solutions. […] The concentrated stock solutions obtained were diluted with an equivalent volume of an aqueous mixture containing 2.5% (v/v) crop oil concentrate so that the final application solutions contained 1.25% (v/v) crop oil concentrate.
(§13) Applications were made by injecting with a pipetter appropriate amounts of the application solutions, individually and sequentially, into the aqueous layer of the paddy. Control plants were treated in the same manner with the solvent blank. […]

[8] = tested on: CYPRO; test: as above; format: in vivo, Cyperus rotundus L. (purple nutsedge); conditions: 20 DAA
Procedure: as §7, §8, §9, §10, §11, §12, §13

Row | SMILES | Visual Weed Control (%) - 20 DAA ECHCO Obs ([1]; 275 gai/ha, foliar) [%] | Visual Weed Control XANST Obs ([2]; 410 gai/ha) [%] | Visual Weed Control XANST Obs ([2]; 820 gai/ha) [%] | Visual Weed Control XANST Obs ([2]; 1640 gai/ha) [%] | Visual Weed Control (%) - 20 DAA CYPES Obs [3] [%] | Visual Weed Control Obs [4] [%] | Visual Weed Control Obs ([1]; 560 gai/ha) [%] | Visual Weed Control Obs ([1]; 1120 gai/ha) [%] | Visual Weed Control Obs ([5]; 560 gai/ha) [%] | Visual Weed Control Obs ([5]; 1120 gai/ha) [%] | Visual Weed Control Obs ([5]; 2240 gai/ha) [%] | Visual Weed Control Obs ([6]; 1120 gai/ha) [%] | Visual Weed Control Obs ([6]; 2240 gai/ha) [%] | Visual Weed Control (%) - 20 DAA ECHOR Obs ([7]; 1120 gai/ha) [%] | pest or weed control at 1120 g/ha ([7]; Echinochloa oryzoides, 480 h, 1120 gai/ha, 20 DAA, read-out: Visual Weed Control ECHOR Obs) [%] | pest or weed control at 2240 g/ha ([7]; Echinochloa oryzoides, 480 h, 2240 gai/ha, 20 DAA, read-out: Visual Weed Control ECHOR Obs) [%] | Visual Weed Control CYPRO Obs ([8]; 1120 gai/ha) [%] | Visual Weed Control CYPRO Obs ([8]; 2240 gai/ha) [%]
1 | COC[C@H](C)N(C(=O)CCl)c1c(C)csc1C [Dimethenamid-P, (S) 2-chloro-N-(2,4-dimethyl-3-thienyl)-N-(2-methoxy-1-methylethyl)acetamide] | 70 | 23 | 30 | 50 | 0 | – | – | – | – | – | – | – | – | – | – | – | – | –
2 | CCN(CC)C(=O)SCc1ccc(Cl)cc1 [Thiobencarb, S-[(4-chlorophenyl)methyl]N,N-diethylcarbamothioate] | – | – | – | – | – | 20 | 45 | 40 | 0 | 0 | 0 | 0 | 0 | 60 | 60 | 90 | 0 | 0
